Assay results reported in publication PMC8687465 (bioRxiv, 2023).

System: FLUV (A/WSN/33)
Type: cell-based, influenza A/WSN/33

CCOC(=O)C1=C[C@@H](OC(CC)CC)[C@H](NC(C)=O)[C@@H](N)C1 [Oseltamivir]
activity against FLUV after 7 passages with compound (resistance development): lost activity by passage 7
